Source: patent publication US20260152498A1, “4,5,6,7-TETRAHYDRO-1H-PYRAZOLO[4,3-c]PYRIDINE COMPOUNDS AND DERIVATIVES AS USP1 INHIBITORS” (EXELIXIS, INC., priority 2022, published 2026)

What was measured:
USP1-UAF1 complex [1] = target: T1, USP1-UAF1 complex (Homo sapiens, UniProt O94782); conditions: 1.2 µM
Procedure: (§1) Biochemical Assay: The compounds were evaluated for their potential to inhibit USP1-UAF1 complex (Boston Biochem, Catalog: E568-050) using a fluorescence-based assay. The final concentrations of USP1-UAF1 complex protein and substrate Ubiquitin-Rhodamine-110 (R&D systems, Catalog U-555-050) used in the assay were 0.45 and 150 nM respectively. 50 mM HEPES pH. 7.5, 100 mM NaCl, 0.5 mM EDTA, 1 mM TCEP, 10% BSA, 0.01% Tween 20 buffer was used in the assay. The total assay volume was 20 μL. […] The final DMSO concentration in the assay was 1%. The compounds were pre-incubated with USP1-UAF1 complex at 25° C. for 15 min. After preincubation, required concentration of substrate was added and incubated at 25° C. for 60 min. Fluorescence at Excitation: 485 nm, Emission: 535 nm was measured in Victor-5 from Perkin Elmer.
(§2) To determine IC50 values, dose response curves were generated by plotting percentage inhibition as a function of inhibitor concentration and the data was fitted to sigmoidal non-linear regression equation (variable slope) using Graph Pad prism software V8.
(§3) The compounds were screened by the above-mentioned assay procedure.

USP1-UAF1 complex [2] = target: T1, USP1-UAF1 complex; assay: biochemical
Procedure: as §1, §2, §3

T1 sequence (O94782 whole entry): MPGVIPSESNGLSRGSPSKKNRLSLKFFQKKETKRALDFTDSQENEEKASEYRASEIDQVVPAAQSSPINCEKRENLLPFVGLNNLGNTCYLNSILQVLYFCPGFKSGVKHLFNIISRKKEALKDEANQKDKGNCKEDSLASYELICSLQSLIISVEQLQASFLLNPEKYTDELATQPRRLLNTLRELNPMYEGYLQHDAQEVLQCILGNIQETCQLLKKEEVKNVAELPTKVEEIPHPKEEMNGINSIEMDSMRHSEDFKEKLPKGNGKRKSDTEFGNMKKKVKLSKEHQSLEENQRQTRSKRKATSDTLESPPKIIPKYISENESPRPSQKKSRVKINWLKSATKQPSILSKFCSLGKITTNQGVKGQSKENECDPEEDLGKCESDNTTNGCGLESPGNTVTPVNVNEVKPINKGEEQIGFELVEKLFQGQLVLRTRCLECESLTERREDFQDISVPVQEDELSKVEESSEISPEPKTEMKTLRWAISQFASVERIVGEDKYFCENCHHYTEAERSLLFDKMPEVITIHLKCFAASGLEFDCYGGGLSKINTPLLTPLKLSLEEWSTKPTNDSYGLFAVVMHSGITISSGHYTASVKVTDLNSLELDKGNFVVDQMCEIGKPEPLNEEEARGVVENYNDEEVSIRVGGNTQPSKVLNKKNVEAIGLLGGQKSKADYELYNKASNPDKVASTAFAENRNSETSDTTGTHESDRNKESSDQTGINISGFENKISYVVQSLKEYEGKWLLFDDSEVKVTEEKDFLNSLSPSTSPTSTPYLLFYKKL
T1 sequence (Q8TAF3 whole entry partner): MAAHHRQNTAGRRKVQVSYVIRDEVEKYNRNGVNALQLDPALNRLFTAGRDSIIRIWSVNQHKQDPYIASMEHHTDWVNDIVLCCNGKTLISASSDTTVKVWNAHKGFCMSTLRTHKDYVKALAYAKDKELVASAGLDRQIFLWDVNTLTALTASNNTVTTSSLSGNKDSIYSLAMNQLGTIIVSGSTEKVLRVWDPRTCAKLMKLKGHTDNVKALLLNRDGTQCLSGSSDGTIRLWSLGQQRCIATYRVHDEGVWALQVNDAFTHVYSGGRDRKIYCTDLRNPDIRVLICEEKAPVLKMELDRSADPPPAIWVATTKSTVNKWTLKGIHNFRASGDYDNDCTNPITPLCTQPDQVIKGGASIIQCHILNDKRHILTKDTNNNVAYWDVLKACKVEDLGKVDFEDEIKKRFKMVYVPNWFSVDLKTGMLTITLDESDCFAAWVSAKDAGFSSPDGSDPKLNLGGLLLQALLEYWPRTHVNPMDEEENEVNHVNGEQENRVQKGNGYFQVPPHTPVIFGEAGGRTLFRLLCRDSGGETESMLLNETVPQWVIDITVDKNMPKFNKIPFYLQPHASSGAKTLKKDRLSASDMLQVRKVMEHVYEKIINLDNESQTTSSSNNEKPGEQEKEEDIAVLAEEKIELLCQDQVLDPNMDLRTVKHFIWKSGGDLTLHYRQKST

| inhibition (USP1-UAF1 complex [1]) | IC50 (USP1-UAF1 complex [2]) | SMILES |
| --- | --- | --- |
| 100% | < 50 nM | COc1ncnc(C2CC2)c1-c1nn(C)c2c1CN(c1ccc(-c3nc(C(F)(F)F)cn3C)c(F)c1)CC2 [Compound 44, 3-(4-cyclopropyl-6-methoxypyrimidin-5-yl)-5-(3-fluoro-4-(1-methyl-4-(trifluoromethyl)-1H-imidazol-2-yl)phenyl)-1-methyl-4,5,6,7-tetrahydro-1H-pyrazolo[4,3-c]pyridine] |
| 95% | 50 to 100 nM | CCOc1cc(N2CCc3c(c(-c4c(OC)ncnc4C4CC4)nn3C)C2)ccc1-c1nc(C(F)(F)F)cn1C [Compound 47, 3-(4-cyclopropyl-6-methoxypyrimidin-5-yl)-5-(3-ethoxy-4-(1-methyl-4-(trifluoromethyl)-1H-imidazol-2-yl)phenyl)-1-methyl-4,5,6,7-tetrahydro-1H-pyrazolo[4,3-c]pyridine] |
| 97% | 50 to 100 nM | COc1ncnc(C2CC2)c1-c1nn(C)c2c1CN(c1ccc(-c3nc(C(F)(F)F)cn3C)c(N(C)C)c1)CC2 [Compound 48, 5-(3-(4-cyclopropyl-6-methoxypyrimidin-5-yl)-1-methyl-1,4,6,7-tetrahydro-5H-pyrazolo[4,3-c]pyridin-5-yl)-N,N-dimethyl-2-(1-methyl-4-(trifluoromethyl)-1H-imidazol-2-yl)aniline] |
| 87% | > 100 nM | COc1ncnc(C2CC2)c1-c1nn(C)c2c1CN(c1ccc(-c3nc(C(F)(F)F)cn3C3CNC3)cc1)CC2 [Compound 55, 5-(4-(1-(azetidin-3-yl)-4-(trifluoromethyl)-1H-imidazol-2-yl)phenyl)-3-(4-cyclopropyl-6-methoxypyrimidin-5-yl)-1-methyl-4,5,6,7-tetrahydro-1H-pyrazolo[4,3-c]pyridine] |
| 5% | > 100 nM | COc1ncnc(C2CC2)c1-c1nn(C)c2c1CN(c1ccc(-c3nn(C)c4c3CNCC4)cc1)CC2 [Compound 56, 3-(4-cyclopropyl-6-methoxypyrimidin-5-yl)-1-methyl-5-(4-(1-methyl-4,5,6,7-tetrahydro-1H-pyrazolo[4,3-c]pyridin-3-yl)phenyl)-4,5,6,7-tetrahydro-1H-pyrazolo[4,3-c]pyridine] |
| 98% | < 50 nM | CCOc1ncnc(C2CC2)c1-c1nn(C)c2c1CN(c1ccc(-c3nc(C(F)(F)F)cn3C)cc1)CC2 [Compound 58, 3-(4-cyclopropyl-6-ethoxypyrimidin-5-yl)-1-methyl-5-(4-(1-methyl-4-(trifluoromethyl)-1H-imidazol-2-yl)phenyl)-4,5,6,7-tetrahydro-1H-pyrazolo[4,3-c]pyridine] |
| 98% | < 50 nM | Cc1cnn(C(C)C)c1-c1nn(C)c2c1CN(c1ccc(-c3nc(C(F)(F)F)cn3C)cc1)CC2 [Compound 61, 3-(1-isopropyl-4-methyl-1H-pyrazol-5-yl)-1-methyl-5-(4-(1-methyl-4-(trifluoromethyl)-1H-imidazol-2-yl)phenyl)-4,5,6,7-tetrahydro-1H-pyrazolo[4,3-c]pyridine] |

The next lines start with the compound.

| SMILES | inhibition (USP1-UAF1 complex [1]) | IC50 (USP1-UAF1 complex [2]) |
| --- | --- | --- |
| COc1ncnc(C2CC2)c1-c1nn(C)c2c1CN(c1ccc(-c3nc(C(F)(F)F)cn3C)cn1)CC2(C)C [Compound 43, 3-(4-cyclopropyl-6-methoxypyrimidin-5-yl)-1,7,7-trimethyl-5-(5-(1-methyl-4-(trifluoromethyl)-1H-imidazol-2-yl)pyridin-2-yl)-4,5,6,7-tetrahydro-1H-pyrazolo[4,3-c]pyridine] | 98% | 50 to 100 nM |
| COc1ncnc(C2CC2)c1-c1nn(C)c2c1CN(c1ccc(-c3nc(C(F)(F)F)cn3C)c(Cl)c1)CC2 [Compound 45, 5-(3-chloro-4-(1-methyl-4-(trifluoromethyl)-1H-imidazol-2-yl)phenyl)-3-(4-cyclopropyl-6-methoxypyrimidin-5-yl)-1-methyl-4,5,6,7-tetrahydro-1H-pyrazolo[4,3-c]pyridine] | 98% | < 50 nM |
| COc1cc(N2CCc3c(c(-c4c(OC)ncnc4C4CC4)nn3C)C2)ccc1-c1nc(C(F)(F)F)cn1C [Compound 46, 3-(4-cyclopropyl-6-methoxypyrimidin-5-yl)-5-(3-methoxy-4-(1-methyl-4-(trifluoromethyl)-1H-imidazol-2-yl)phenyl)-1-methyl-4,5,6,7-tetrahydro-1H-pyrazolo[4,3-c]pyridine] | 96% | 50 to 100 nM |
| COc1ncnc(C2CC2)c1-c1nn(C)c2c1CN(c1csc(-c3nc(C(F)(F)F)cn3C)c1)CC2 [Compound 49, 3-(4-cyclopropyl-6-methoxypyrimidin-5-yl)-1-methyl-5-(5-(1-methyl-4-(trifluoromethyl)-1H-imidazol-2-yl)thiophen-3-yl)-4,5,6,7-tetrahydro-1H-pyrazolo[4,3-c]pyridine] | 14% | > 100 nM |
| COc1ncnc(C2CC2)c1-c1nn(C)c2c1CN(c1csc(-c3nc(C(F)(F)F)cn3C)n1)CC2 [Compound 50, 4-(3-(4-cyclopropyl-6-methoxypyrimidin-5-yl)-1-methyl-1,4,6,7-tetrahydro-5H-pyrazolo[4,3-c]pyridin-5-yl)-2-(1-methyl-4-(trifluoromethyl)-1H-imidazol-2-yl)thiazole] | 20% | > 100 nM |
| COc1ncnc(C2CC2)c1-c1nn(C)c2c1CN(c1cnc(-n3nc(C(F)(F)F)cc3C)nc1)CC2 [Compound 51, 3-(4-cyclopropyl-6-methoxypyrimidin-5-yl)-1-methyl-5-(2-(5-methyl-3-(trifluoromethyl)-1H-pyrazol-1-yl)pyrimidin-5-yl)-4,5,6,7-tetrahydro-1H-pyrazolo[4,3-c]pyridine] | 95% | 50 to 100 nM |
| COc1ncnc(C2CC2)c1-c1nn(C)c2c1CN(c1cnc(-c3nc(C(F)(F)F)cn3C)cn1)CC2 [Compound 52, 3-(4-cyclopropyl-6-methoxypyrimidin-5-yl)-1-methyl-5-(5-(1-methyl-4-(trifluoromethyl)-1H-imidazol-2-yl)pyrazin-2-yl)-4,5,6,7-tetrahydro-1H-pyrazolo[4,3-c]pyridine] | 96% | 50 to 100 nM |
| COc1ncnc(C2CC2)c1-c1nn(C)c2c1CN(c1ccc(-c3nn(C)c4c3CN(C)CC4)cc1)CC2 [Compound 53, 3-(4-cyclopropyl-6-methoxypyrimidin-5-yl)-5-(4-(1,5-dimethyl-4,5,6,7-tetrahydro-1H-pyrazolo[4,3-c]pyridin-3-yl)phenyl)-1-methyl-4,5,6,7-tetrahydro-1H-pyrazolo[4,3-c]pyridine] | 42% | > 100 nM |
| COc1ncnc(C2CC2)c1-c1n[nH]c2c1CN(c1ccc(-c3nc(C(F)(F)F)cn3C)cn1)CC2 [Compound 54, 3-(4-cyclopropyl-6-methoxypyrimidin-5-yl)-5-(5-(1-methyl-4-(trifluoromethyl)-1H-imidazol-2-yl)pyridin-2-yl)-4,5,6,7-tetrahydro-1H-pyrazolo[4,3-c]pyridine] | 91% | > 100 nM |
| CCc1cc(N2CCc3c(c(-c4c(OC)ncnc4C4CC4)nn3C)C2)ccc1-c1nc(C(F)(F)F)cn1C [Compound 57, 3-(4-cyclopropyl-6-methoxypyrimidin-5-yl)-5-(3-ethyl-4-(1-methyl-4-(trifluoromethyl)-1H-imidazol-2-yl)phenyl)-1-methyl-4,5,6,7-tetrahydro-1H-pyrazolo[4,3-c]pyridine] | 87% | > 100 nM |
| COc1ncnc(C2CC2)c1-c1nn(C)c2c1CN(c1ncc(-c3nc(C(F)(F)F)cn3C)cn1)CC2 [Compound 59, 3-(4-cyclopropyl-6-methoxypyrimidin-5-yl)-1-methyl-5-(5-(1-methyl-4-(trifluoromethyl)-1H-imidazol-2-yl)pyrimidin-2-yl)-4,5,6,7-tetrahydro-1H-pyrazolo[4,3-c]pyridine] | 95% | 50 to 100 nM |
| COc1nccc(C2CC2)c1-c1nn(C)c2c1CN(c1ccc(-c3nc(C(F)(F)F)cn3C)cc1)CC2 [Compound 60, 3-(4-cyclopropyl-2-methoxypyridin-3-yl)-1-methyl-5-(4-(1-methyl-4-(trifluoromethyl)-1H-imidazol-2-yl)phenyl)-4,5,6,7-tetrahydro-1H-pyrazolo[4,3-c]pyridine] | 92% | < 50 nM |
| Cc1cnn(C(C)C)c1-c1nn(C)c2c1CN(c1ccc(-c3nc(C(F)(F)F)cn3C)nc1)CC2 [Compound 62, 3-(1-isopropyl-4-methyl-1H-pyrazol-5-yl)-1-methyl-5-(6-(1-methyl-4-(trifluoromethyl)-1H-imidazol-2-yl)pyridin-3-yl)-4,5,6,7-tetrahydro-1H-pyrazolo[4,3-c]pyridine] | 95% | 50 to 100 nM |
